According to article PMC12621189, “Optimization of Selective and CNS Penetrant Alkyne-Based TREK Inhibitors: The Discovery and Characterization of ONO-9517601 (VU6022856) and ONO-7927846 (VU6024391)” (Journal of Medicinal Chemistry, 2025):

Assays:
ChromatoLogD = format: physicochemical
[1] = Liver microsome intrinsic clearance, mouse; format: in vitro ADME; details: pH 7.4; mouse liver microsomes, predicted intrinsic clearance; read-out: LMS CLINT mouse
[2] = Liver microsome intrinsic clearance, human; format: in vitro ADME; details: pH 7.4; human liver microsomes, predicted intrinsic clearance; read-out: LMS CLINT human
Protocol: (§1) were incubated in 100 mM potassium phosphate pH 7.4 buffer with 3 mM MgCl2 at 37 °C with constant shaking. After a 5 min preincubation, the reaction was initiated by the addition of NADPH (1 mM). At selected time intervals (0, 3, 7, 15, 25, and 45 min), aliquots were taken and subsequently placed into a 96-well plate containing cold acetonitrile with internal standard (50 ng/mL carbamazepine). Plates were then centrifuged at 3000 rcf (4 °C) for 10 min, and the supernatant was transferred to a separate 96-well plate and diluted 1:1 with water for LC/MS/MS analysis. The in vitro half-life ( 1/2, min, Eq. 1), intrinsic clearance (CLint, mL/min/kg, Eq. 2), and subsequent predicted hepatic clearance (CLhep, mL/min/kg, Eq. 3) was determined employing the […]
(§2) where k represents the slope from linear regression analysis of the natural log percent remaining of a test compound as a function of incubation time […]
(§3) (2) CLint = in vitroT x mg microsomes x gram liver x kg body wt ascale-up factors: of 20 (human) or 45 (rat) […]
(§4) where Qh (hepatic blood flow, mL/min/kg) is 21 (human) or 70 (rat).
(§5) LC/MS/MS Bioanalysis of Samples from Plasma Protein Binding and Intrinsic Clearance […]
(§6) Samples were analyzed on a Thermo Electron TSQ Quantum Ultra triple quad mass spectrometer (San Jose, CA) via electrospray ionization (ESI) with two Themo Electron Accella pumps (San Jose, CA), and a Leap Technologies CTC PAL autosampler (Carrboro, NC). Analytes were […]

human TREK-1 (hTREK-1) = biological target: T1, human TREK-1 (hTREK-1) (Homo sapiens, UniProt O95069); test: TREK-1 thallium flux assay (CHO-K1 cells stably expressing hTREK-1); format: cell-based; details: human TREK-1, thallium flux; read-out: h TREK-1 Tl+ IC50
T1 construct: expressed in transfected cells
T1 sequence (O95069 1-426): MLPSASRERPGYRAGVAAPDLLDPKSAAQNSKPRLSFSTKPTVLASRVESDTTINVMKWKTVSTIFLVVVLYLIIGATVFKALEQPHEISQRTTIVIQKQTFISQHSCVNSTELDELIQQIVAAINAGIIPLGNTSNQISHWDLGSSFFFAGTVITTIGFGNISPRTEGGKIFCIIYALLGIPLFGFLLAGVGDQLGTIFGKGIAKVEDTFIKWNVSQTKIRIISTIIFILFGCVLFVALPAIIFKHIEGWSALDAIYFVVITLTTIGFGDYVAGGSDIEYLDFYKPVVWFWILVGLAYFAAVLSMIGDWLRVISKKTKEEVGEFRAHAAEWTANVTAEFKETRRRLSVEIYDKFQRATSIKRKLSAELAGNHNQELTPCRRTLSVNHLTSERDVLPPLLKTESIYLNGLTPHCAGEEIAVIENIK
Protocol: Procedures for Biological Experiments
TREK-1 Thallium flux assay
CHO-K1 cells stably expressing hTREK-1 were cultured in T225 flask. The cells were loaded with FluxOR dye and plated in 384 well plate at the experiment day. Test compounds or control compound (tert-butyl (3-((4-(benzyloxy)-2-methylphenyl)carbamoyl)-4-chlorophenyl)carbamate) or 0.3% DMSO (vehicle control) were added directly to the cell plates and incubated for 10 min, and then treated with thallium stimulus buffer to initiate thallium flux.
To measure the efficacy and potency of test compounds, the change in fluorescence intensity (ΔRatio) and % inhibition were calculated using the following equations:
ΔRatio = (fluorescence intensity at 25 seconds after thallium addition)/(average of fluorescent intensity before thallium addition)
(§7) 0.3% DMSO - ΔRatio of 10 μM control compound)}x100
(§8) % inhibition vs compound concentration were plotted in XLfit and calculated IC50.
CHO-K1 cells stably expressing human TREK-1 (hTREK-1) were cultured in T225 flask.
The cells were loaded with FluxOR dye and plated in 384 well plate at the experiment day. Test compounds or control compound (tert-butyl (3-((4-(benzyloxy)-2-methylphenyl)carbamoyl)-4-chlorophenyl)carbamate) or 0.3% DMSO (vehicle control) which were prepared on separate plates were added to the cell plates and incubated for 10 min, and then the cells with test compounds or […]
chlorophenyl)carbamate) or 0.3% DMSO (vehicle control) were treated with thallium stimulus buffer to initiate thallium flux. To measure the efficacy and potency of test compounds, the change in fluorescence intensity (ΔRatio) and % inhibition were calculated using the following equations: […]

[3] = Plasma protein binding, rat; format: in vitro ADME; details: rat, plasma, pH 7.4, rat plasma, bound; read-out: PPB rat (converted)
Protocol: (§9) Plasma protein binding and Brain homogenate binding: Determination of fraction unbound (f u) in plasma was conducted in vitro via equilibrium dialysis using HTDialysis (HTD) membrane plates. The top half of the plate was filled with 100 uL of Dubelco’s Phosphate Buffered Saline, pH 7.4 (DPBS). Compounds were diluted into plasma from each species (5 µM final concentration), which was aliquoted in triplicate to the ‘bottom half’ of the prepared HTD plate wells. The HTD plate was sealed and incubated for 6 hours at 37 °C. Following incubation, each well (both top and bottom halves) were transferred (20 µL) to the corresponding wells of a 96-shallow-well (V-bottom) plate. The daughter plates were then matrix-matched (DPBS side wells received equal volume of plasma, and plasma side wells received equal volume of DPBS), and extraction solution (120 µL; acetonitrile containing 50 nM carbamazepine as IS) was added to all wells of both daughter plates to precipitate protein and extract test article. The plates were then sealed and centrifuged (3500 rcf) for 10 minutes at ambient temperature. Supernatant (60 µL) from each well of the daughter plates was then transferred to the corresponding wells of new daughter plates (96-shallow-well, V bottom) containing water (Milli-Q, 60 µL/well), and the plates were sealed in preparation for LC-MS/MS analysis (see LC-MS/MS analysis method below).
(§10) The unbound fraction (f u) was calculated following the equation below, and mean values for each species were calculated from 3 replicates. […]
(§11) Fraction unbound for both plasma and brain samples was determined using Equation 4.
(§12) Equation 4 Determination of fraction unbound in plasma. […]

[4] = Liver microsome intrinsic clearance, rat; format: in vitro ADME; details: pH 7.4; rat liver microsomes, predicted intrinsic clearance; read-out: LMS CLINT rat
Protocol: as §1, §2, §3, §4, §5, §6

[5] = Plasma protein binding, mouse; format: in vitro ADME; details: mouse, plasma, pH 7.4, mouse plasma, bound; read-out: PPB mouse (converted)
Protocol: as §9, §10, §11, §12

human TREK-2 (hTREK-2) = biological target: T2, human TREK-2 (hTREK-2) (Homo sapiens, UniProt P57789); test: TREK-2 thallium flux assay (HEK293 cells stably expressing hTREK-2); format: cell-based; details: human TREK-2, thallium flux; read-out: h TREK-2 Tl+ IC50
T2 construct: expressed in transfected cells
T2 sequence (P57789 1-538): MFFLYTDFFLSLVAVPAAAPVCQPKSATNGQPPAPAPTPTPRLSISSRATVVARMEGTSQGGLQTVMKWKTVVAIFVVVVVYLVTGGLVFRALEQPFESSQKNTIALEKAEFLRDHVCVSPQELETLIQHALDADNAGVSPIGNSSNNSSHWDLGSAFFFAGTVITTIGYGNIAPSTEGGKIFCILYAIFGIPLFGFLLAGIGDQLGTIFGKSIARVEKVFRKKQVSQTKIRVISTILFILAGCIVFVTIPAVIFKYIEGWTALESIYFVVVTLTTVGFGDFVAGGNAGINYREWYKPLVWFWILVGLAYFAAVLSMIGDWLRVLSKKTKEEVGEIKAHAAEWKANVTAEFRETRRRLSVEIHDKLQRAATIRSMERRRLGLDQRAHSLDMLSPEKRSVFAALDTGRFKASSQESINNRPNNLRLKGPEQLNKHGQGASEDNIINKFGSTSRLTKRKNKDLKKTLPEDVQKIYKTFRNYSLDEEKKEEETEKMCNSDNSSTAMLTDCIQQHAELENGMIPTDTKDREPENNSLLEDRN
Protocol: as §7, §8
TREK-2 Thallium flux assay
HEK293 cells stably expressing human TREK-2 (hTREK-2) are plated in 384-well plates, cultured overnight, loaded with Thallos dye the following day. Test compounds or control compound (tert-butyl (3-((4-(benzyloxy)-2-methylphenyl)carbamoyl)-4-chlorophenyl)carbamate) or 0.3% DMSO (vehicle control) which are prepared on separate plates are added to the cell plates and incubated for 10 min, and then the cells were treated with thallium stimulus buffer to initiate […]
To measure the efficacy and potency of test compounds, the change in fluorescence intensity (ΔRatio) and % inhibition are calculated using the following equations: […]

Structure (SMILES)	chromatographic logD (ChromatoLogD)	CLint scaled at 1 µM [1] [mL/min/kg]	CLint scaled at 1 µM [2] [mL/min/kg]	IC50 (human TREK-1 (hTREK-1)) [µM]	fraction unbound at 6 h, 5 µM [3]	CLint scaled at 1 µM [4] [mL/min/kg]	fraction unbound at 6 h, 5 µM [5]	IC50 (human TREK-2 (hTREK-2)) [µM]
Cc1cc(C#Cc2ccccc2)cnc1NC(=O)c1cc(-c2noc(C3CCOC3)n2)ccc1Cl (centres unmarked) [Compound 13b, 2-Chloro-N-(3-methyl-5-(phenylethynyl)pyridin-2-yl)-5-(5-(tetrahydrofuran-3-yl)-1,2,4-oxadiazol-3-yl)benzamide]	5.01	68	71	0.048	–	–	–	–
Cc1cc(C#Cc2ccccc2)cnc1NC(=O)c1c(Cl)cnn1-c1ccc2c(cnn2C)c1 [Compound 15c, 4-Chloro-1-(1-methyl-1H-indazol-5-yl)-N-(3-methyl-5-(phenylethynyl)pyridin-2-yl)-1H-pyrazole-5-carboxamide]	–	–	–	0.084	0.002	–	–	–
Cc1cc(C#Cc2ccccc2)cnc1NC(=O)c1c(Cl)cnn1CCCC#N [Compound 15d, 4-Chloro-1-(3-cyanopropyl)-N-(3-methyl-5-(phenylethynyl)pyridin-2-yl)-1H-pyrazole-5-carboxamide]	–	–	9	–	–	30	0.001	–

More lines, now with the values ahead:

chromatographic logD (ChromatoLogD)	CLint scaled at 1 µM [1] [mL/min/kg]	CLint scaled at 1 µM [2] [mL/min/kg]	IC50 (human TREK-1 (hTREK-1)) [µM]	fraction unbound at 6 h, 5 µM [3]	CLint scaled at 1 µM [4] [mL/min/kg]	fraction unbound at 6 h, 5 µM [5]	IC50 (human TREK-2 (hTREK-2)) [µM]	Structure (SMILES)
–	–	–	–	0.009	–	–	–	CC(=O)N1C[C@H]2C[C@H](n3ncc(Cl)c3C(=O)Nc3ncc(C#Cc4ccccc4)cc3C)C[C@H]2C1 [Compound 15g, 1-((3aR,5s,6aS)-2-Acetyloctahydrocyclopenta[c]pyrrol-5-yl)-4-chloro-N-(3-methyl-5-(phenylethynyl)pyridin-2-yl)-1H-pyrazole-5-carboxamide]
–	–	13	0.096	–	94	–	0.29	CC(=O)N1CC[C@@H](n2ncc(Cl)c2C(=O)Nc2ncc(C#Cc3ccccc3)cc2C)[C@H](F)C1 [Compound 16b, 1-((3R,4R)-1-Acetyl-3-fluoropiperidin-4-yl)-4-chloro-N-(3-methyl-5-(phenylethynyl)pyridin-2-yl)-1H-pyrazole-5-carboxamide]
